Data published in US10314814B2, “Composition comprising 7-hydroxymatairesinol” (LINNEA S.A., priority 2014, dated 2019).

Key:
Type in all cases: in vivo, mice (C57BL/6J)
[1] = system: ATGL, PLA2g7 and LPL mRNA; test: Test 8 - regulation of genes of the lipid metabolism (epidydimal adipose tissue); details: summary statement; data in FIGS. 7a-7c
Experimental: (§1) A group of 140 mice (C57BL/6J) was divided in four sub-groups, group 1 having twenty mice and groups 2 to 4 having forty mice each. Group 1 was fed for 60 days with a low fat (LF) diet (providing 10% calories from fat). Group 2 was fed for 60 days with a high fat (HF) diet (providing 50% calories from fat). Groups 3 and 4 were fed for 60 days with a high fat diet and with 3 mg/kg/day of HMRlignan™ purified HMR (HF+HMR) or 10 mg/kg/day of a total extract of Picea abies (HF+TEP), respectively.
(§2) Mice were kept in animal cabinets maintained at a temperature of 23° C., with natural light/dark cycles. Before treatments, mice were put 5 days on an low fat diet. Mice were fed by gavage daily for 60 days (groups 3 and 4), whilst control groups (1 and 2) received by gavage the carrier only (corn oil). The animals were sacrificed by cervical dislocation and the tissues dissected and immediately frozen on dry ice or fixed for histological evaluation.
The expression of ATGL, PLA2g7 and LPL mRNA was measured in the epidydimal adipose tissue of the four groups of mice according to standard procedures as follows.
(§3) Total RNA was extracted from 10 to 30 mg of tissue using the RNeasy Lipid Tissue Kit (Qiagen, Maryland, USA) and following the manufacture's instruction. […] Quantitative PCR was performed using Assay on Demand kits based on TaqMan chemistry (Applied Biosystems). […]

[2] = system: PPARg and TFEB mRNA; test: Test 9 - regulation of genes of the lipid metabolism (liver); details: summary statement; data in FIGS. 8a, 8b
Experimental: as §1, §2
The expression of PPARg and TFEB mRNA was measured in the liver of the four groups of mice according to standard procedures as follows.
as §3

[3] = system: GSTs mRNA; 8OHdG and dGU; test: Test 10 - oxidative stress (GSTs mRNA, 8OHdG/dGU); details: summary statement; data in FIGS. 9, 10
Experimental: as §1
Mice were kept in animal cabinets maintained at a temperature of 23° C., with natural light/dark cycles. Before treatments, mice were put 5 days on an low fat diet. […]
The expression of GSTs mRNA was measured in the four groups of mice according to standard procedures as follows.
as §3
The expression of 8OHdG and dGU […] was measured in the four groups of mice according to standard procedures as follows.
Genomic DNA was isolated with commercial kit PUREGENE (Gentra Systems MN, USA), following the manufacturer's instructions, and then quantified using Nanodrop spectrophotometer (Thermo Scientific, DE, USA). […]

[4] = system: epidydimal adipose tissue; test: Test 2 - histological examination, average adipocyte area
Experimental: as §1, §2
Fresh epidydimal adipose tissue was fixed in formaldehyde, embedded in paraffin and sliced into 3-μm sections. Sections were stained with hematoxylin, counterstained with eosin, then coverslipped with DPX (BDH, Poole, UK). […]
Average adipocyte area was calculated at ×20 magnification with a dedicated software (Image Pro Plus; Imaging and Computer, Milan). In all samples, at least four different fields of three different tissue sections have been evaluated.

[5] = system: liver tissue; test: Test 3 - liver steatosis (histology); details: high fat diet, 60 days; HMR 3 mg/kg/day, TEP 10 mg/kg/day; compared with HF group 2 (micro- and macro vesicular steatosis)
Experimental: as §1, §2
Fresh liver tissue was fixed in formaldehyde, embedded in paraffin and sliced into 3-μm sections. Sections were stained with hematoxylin, counterstained with eosin, then coverslipped with DPX (BDH, Poole, UK). Images acquisition was obtained by a digital camera (Nikon Digital Camera DMX 1200). A sample image of the four groups was illustrated in FIG. 3.

[6] = system: IL-6 and TNF-alfa mRNA; test: Test 7 - inflammatory cytokine mRNA expression; details: summary statement; data in FIGS. 6a-6c
Experimental: as §1
as §2, with “The animals were sacrificed by cervical dislocation and the tissues dissected and immediately frozen on dry ice or fixed for histological evaluation.” left out
The expression of inflammatory cytokine mRNA was measured in the epidydimal adipose tissue (IL-6 and TNF-alfa) and liver (IL-6) in the four groups of mice according to standard procedures as follows.
as §3

[7] = Test 5 - homeostasis model assessment of insulin resistance (HOMA-IR); details: HOMA Calculator, glucose and insulin after 6 hours of food withdrawal, high fat diet, 60 days
Experimental: as §1, §2
The homeostatic model assessment of insulin resistance (HOMA-IR) was calculated using glucose and insulin concentrations obtained after 6 hours of food withdrawal, using the HOMA Calculator (Diabetes Trials Unit), the Oxford Centre for Diabetes, Endocrinology and Metabolism: homa.calculator@dtu.ox.ac.uk. Plasma insulin levels were measured with an insulin ELISA kit (Millipore, Mouse Insulin 96 well plate assay; CAT. Nº EZRMI-13K).

[8] = Test 6 - lipid profiles in blood
Experimental: as §1, §2
The concentration in blood of cholesterol (Total), cholesterol HDL (HDL), cholesterol LDL (LDL) and triglycerides (TG) were determined according to standard methods, by using an ILab ARIES analyzer (Instrumentation Laboratory Company, Lexington, Mass., USA) and dedicated reagents kits IL Test (Instrumentation Laboratory Company, Lexington, Mass., USA)

[9] = Test 4 - glucose tolerance test; details: summary statement; data in FIG. 4
Experimental: as §1, §2
For glucose tolerance tests animals were fasted overnight for 12 hours and blood sample were obtained from the tail vein. […] The glucose concentration was evaluated with standard method (Benjamin B. Whiddon and Richard D. Palmiter. Ablation of Neurons Expressing Melanin-Concentrating Hormone (MCH) in Adult Mice Improves Glucose Tolerance Independent of MCH Signaling. J Neurosci. 2013 Jan. 30; 33(5): 2009-2016).

[10] = system: hepcidin, ferritin and ferroportin; test: Test 11 - iron metabolism; details: summary statement; data in FIG. 11
Experimental: as §1, §2
The levels of hepcidin, ferritin and ferroportin were measured in the four groups of mice according to standard procedures as described, for example, in An-Sheng Zhang et al. “Suppression of hepatic hepcidin expression in response to acute iron deprivation is associated with an increase of matriptase-2 protein”, Blood. Feb. 3, 2011; 117(5):1687-1699).

[11] = Test 1 - fat mass and lean mass quantification (EchoMRI), body weight; details: summary statement; data in FIGS. 1 and 2
Experimental: as §1
as §2, with “The animals were sacrificed by cervical dislocation and the tissues dissected and immediately frozen on dry ice or fixed for histological evaluation.” left out
EchoMRI provides the most precise measurements of whole body composition parameters (total body fat and lean mass), in alive mice without the need of anesthesia or sedation and in less than 1 minute. Alterations in mouse whole body composition were assessed as a result of exposure to modified diets. […]
The EchoMRI-100™ QNMR system was housed in a dedicated area to minimize the entry of disease or contaminants. […] The output information was expressed as lean tissue mass and fat mass in grams. […]

COc1cc(CC2C(=O)OCC2C(O)c2ccc(O)c(OC)c2)ccc1O (stereo not drawn) [HMR, 7-hydroxymatairesinol]
regulation of genes of the lipid metabolism in the epidydimal adipose tissue (ATGL mRNA, PLA2g7 gene, LPL gene) [1]: able to contribute to the regulation
regulation of genes of the lipid metabolism in the liver (PPARg gene, TFEB gene) [2]: able to contribute to the regulation
cellular oxidative stress [3]: able to reduce
Average area (adipocyte) ([4]; epidydimal adipose tissue, high fat diet, 60 days, daily gavage, HMR 3 mg/kg/day, TEP 10 mg/kg/day, HF control 20832, LF 9275, data only indicative, group 3 vs group 2 statistically different): 18478 μm^2
number and area of adipocytes ([4]; summary statement): able to reduce
Liver histology (steatosis) [5]: some vacuoles, much less than group 2
concentration of pro-inflammatory cytokines in the epidydimal adipose tissue and liver [6]: reduce
IR: Insulin resistance ([7]; HF control 6.97, LF 0.69): 2.04
% S: Insulin sensitivity ([7]; HF control 15.0, LF 121.0): 31.9
% B: Steady state beta cell function ([7]; HF control 101.0, LF 64.4): 55.0
cholesterol LDL (LDL) concentration in blood ([8]; high fat diet, 60 days, HF control 56, LF 18): 51
cholesterol HDL (HDL) concentration in blood ([8]; high fat diet, 60 days, HF control 133, LF 79): 129
triglycerides (TG) concentration in blood ([8]; high fat diet, 60 days, HF control 153, LF 88): 140
cholesterol (Total) concentration in blood ([8]; high fat diet, 60 days, HMR 3 mg/kg/day, TEP 10 mg/kg/day, HF control 220, LF 114): 209
dyslipidemia ([8]; summary statement): able to reduce
glycaemia [9]: able to reduce
iron metabolism [10]: regulate
obesity [11]: able to reduce
